The data set is described as follows: solvent given as SMILES.

Several values for one entry are separate records, joined by “and”; a condition that tells them apart may be missing. Equal entries are not always repeated.

With `Nc1cc([NH3+])cc(-c2nc3ccccc3s2)c1`, the absorption maximum (in O) turned out to be 300 nm.
As for `ClP1(Cl)=NP(Cl)(Cl)=NP(Cl)(Oc2ccc3ccc4cccc5ccc2c3c45)=N1` (configuration not stated), the absorption maximum (in ClCCl) was 343 nm.
Consider `CCOC(=O)/C=C/c1ccc(N(C)C)cc1`, for which the absorption maximum (in C1CCCCC1) amounted to 353 nm; the absorption maximum (in C1CCOC1) turned out to be 362 nm; the absorption maximum (in C1COCCO1) was 359 nm; the absorption maximum (in CC#N) is on record as 363 nm; the absorption maximum (in CCCCCCCCO) amounted to 363 nm; the absorption maximum (in CCCCCCO) is listed as 365 nm. The absorption maximum was determined as 363 nm (in CCCCO); 364 nm (in CCCO); 363 nm (in CCO); 360 nm (in CCOC(C)=O); 362 nm (in CO); 362 nm (in Cc1ccccc1). Also, the absorption maximum reads like this: (in O) 373 nm; (in c1ccccc1) 363 nm.
Consider `CCC/N=C/c1cc2ccc(N(C)C)cc2cc1OC`, for which the absorption maximum is recorded as 369 nm (in C1CCOC1); 369 nm (in CC#N); 450 nm (in CC(C)O); 369 nm (in CCOC(C)=O); 374 nm (in CN(C)C=O); 376 nm (in CS(C)=O). Moreover, the absorption maximum was found to be 369 nm (in Cc1ccccc1), 368 nm (in ClCCl) and 438 nm (in O).
For the setting “in ClCCl”, `N#Cc1ccc(/C2=C3N=C(C(c4ccccc4)=C/3c3ccccc3)/C(c3ccc(C#N)cc3)=c3\[nH]/c(c(-c4ccccc4)c3-c3ccccc3)=C(/c3ccc(C#N)cc3)C3=N/C(=C(/c4ccc(C#N)cc4)c4[nH]c2c(-c2ccccc2)c4-c2ccccc2)C(c2ccccc2)=C3c2ccccc2)cc1` showed an absorption maximum of 704 nm.
As for `c1ccncc1`, the absorption maximum was found to be 252 nm (in CC1CCCCC1), 253 nm (in ClC(Cl)Cl) and 253 nm (in O).
`N#Cc1c(C#N)c2cc(F)ccc2c2ccc(F)cc12`: the absorption maximum (in ClC(Cl)Cl) worked out at 335 nm.
As to `CC1(C)c2ccccc2N(c2ccc(-c3ncccn3)cc2)c2ccccc21`, under “in Cc1ccccc1”, the absorption maximum was determined as 359 nm.
The compound `CCCCCCCCCc1c2ccccc2cc2c1oc1c3oc4c5oc6cc7ccccc7cc6c5c5ccccc5c4c3c3ccccc3c21` had an absorption maximum (in C1CCOC1) of 420 nm.
Same read-out and setting: the same measure for `CC(C)(C)c1ccc(-c2c(-c3ccc4c5ccccc5n(-c5ccccc5)c4c3)c(C#N)c(-c3ccc4c5ccccc5n(-c5ccccc5)c4c3)c(-c3ccc(C(C)(C)C)cc3)c2-c2ccc(C(C)(C)C)cc2)cc1`: 345 nm.
For `N#Cc1cc2ccccc2[nH]1`, the absorption maximum is, setting by setting: (in C1COCCO1) 281.6 nm; (in CC#N) 279.69 nm.
Compound `CCCCn1c(-c2ccc(-c3ccc(-c4ccc(-c5n(CCCC)c6cc(C)ccc6[n+]5CCCC)cc4)cc3)cc2)[n+](CCCC)c2ccc(C)cc21` came in with an absorption maximum (in O) of 304 nm.
In the case of `CN(C)c1ccc(/C=C/C=C/c2ccc(C#N)cc2)cc1`, the absorption maximum reads like this: (in CC#N) 402 nm; (in CCCC#N) 410 nm; (in CCCCCC) 400 nm; (in CCOCC) 400 nm.
For the setting “in ClC(Cl)Cl”, `CCCCCCN1C(=O)c2cccc3c(-c4sc(-c5ccc6c7c(cccc57)C(=O)N(CCCCCC)C6=O)c5c4OCCO5)ccc(c23)C1=O` had an absorption maximum of 416 nm.
For the setting “in Cc1ccccc1”, `CC(C)(C)c1ccc2c(c1)c1cc(C(C)(C)C)ccc1n2-c1ccc(-c2ccc3c(c2)C(=O)c2ccc(-c4ccc(-n5c6ccc(C(C)(C)C)cc6c6cc(C(C)(C)C)ccc65)cc4)cc2C3=O)cc1` gave an absorption maximum of 426 nm.
Take `CCn1c2ccccc2c2cc(C#Cc3cc(C#Cc4ccc5c(c4)c4ccccc4n5CC)nc(N4CCCCC4)n3)ccc21`: the absorption maximum was found to be 393 nm (in C1CCOC1); 391 nm (in CCOC(C)=O); 398 nm (in CN(C)C=O); 395 nm (in Cc1ccccc1); 397 nm (in ClCCl).
Take `c1cc2cc(c1)c1ccc3c(c1)c1cc(ccc1[C@]14OCCO[C@]31OCCO4)c1ccc3c(c1)c1cc(ccc1[C@]14OCCO[C@]31OCCO4)c1cccc2c1`: under “in ClC(Cl)Cl”, the absorption maximum stood at 260 nm.
As to `COc1ccc(-c2c(-c3ccc(OC)cc3)c3c4c(cccc4c2-c2ccccc2)C(=O)c2ccccc2-3)cc1`, the absorption maximum is, setting by setting: (in CC#N) 402 nm; (in CO) 407 nm.
`CCCC1=Cc2nc1ccc1[nH]c(cc1CCC)c1nc(c(OC(C)=O)cc3[nH]c2cc3CCC)C(CCC)=C1` showed an absorption maximum (in Cc1ccccc1) of 645 nm.
Compound `CC(C)(C)c1ccc(-c2c(-c3cccc(-n4c5ccccc5c5ccccc54)c3)c(C#N)c(-c3cccc(-n4c5ccccc5c5ccccc54)c3)c(-c3ccc(C(C)(C)C)cc3)c2-c2ccc(C(C)(C)C)cc2)cc1` came in with an absorption maximum (in C1CCOC1) of 360 nm.
Turning to `CC1(C)CC(=O)C2=C(C1)Oc1ccc3ccccc3c1C2c1ccccn1` (configuration not stated), the absorption maximum turned out to be 275 nm (in C1CCOC1); 274 nm (in C1COCCO1); 275 nm (in CC#N); 274 nm (in CCCCCCC); 274 nm (in CCO); 275 nm (in CO). The same compound had an absorption maximum (in O) of 264 nm.
`CCCC1(CCC)c2cc(-c3ccc4c(c3)C(CCC)(CCC)c3cc(C(C)(C)CC)ccc3-4)ccc2-c2ccc(-c3ccc4c(c3)C(CCC)(CCC)c3cc(C(C)(C)CC)ccc3-4)cc21` registered an absorption maximum (in C1CCCCC1) of 351 nm.
For the compound `CCCCN(CCCC)c1ccc(C#Cc2cc(C#Cc3ccc(N(CCCC)CCCC)cc3)c(C#Cc3c(F)c(F)c(F)c(F)c3F)cc2C#Cc2c(F)c(F)c(F)c(F)c2F)cc1`, under “in ClCCl”, the absorption maximum is given as 438 nm.
For the compound `F[B-]1(F)n2c(-c3cccs3)cc(-c3cccs3)c2N=C2C(c3cccs3)=CC(c3cccs3)=[N+]21`, the absorption maximum by setting is: (in C1CCOC1) 740 nm; (in CC#N) 733 nm; (in CS(C)=O) 752 nm; (in Cc1ccccc1) 743 nm; (in ClCCl) 740 nm and 742 nm.
For the compound `c1ccc(-c2c3ccccc3c(-c3ncccn3)c3ccccc23)cc1`, the absorption maximum is 390 nm (in CCO) and 393 nm (in ClCCl).
Compound `C[n+]1ccc(/C=C/c2cc[n+](C)cc2)cc1` showed an absorption maximum (in CC#N) of 317 nm.
Consider `Nc1ccc(C#Cc2ccc3ccc4ccc(C#Cc5ccc(NS(=O)(=O)c6ccc([N+](=O)[O-])cc6[N+](=O)[O-])cc5)c5ccc2c3c45)cc1`, for which, where the note is “in CO”, the absorption maximum is given as 406 nm.
Compound `Clc1cc(Cl)c(B2c3ccccc3Nc3ccccc32)c(Cl)c1` showed an absorption maximum (in ClCCl) of 396 nm.
`COc1ccc(-n2nc(C#N)c(N3CCCC3)n2)cc1`: the absorption maximum is 340 nm (in CC#N); 335 nm (in CCCCCC); 339 nm (in CCO); 343 nm (in CN(C)C=O); 340 nm (in CO); 342 nm (in ClC(Cl)Cl).
For the setting “in ClCCl”, `Brc1ccc(/C=C/c2cnc3ccccc3n2)cc1` returned an absorption maximum of 369 nm.
The same measure, in the same setting: the same measure for `CCCCCCOc1ccc(N(c2ccc(OCCCCCC)cc2)c2ccc(-c3sc(-c4ccc(N(c5ccc(OCCCCCC)cc5)c5ccc(OCCCCCC)cc5)cc4)c4nc(C(=O)OCC)c(C(=O)OCC)nc34)cc2)cc1`: 665 nm.
The same measure, in the same setting: next, `CCOC(=O)c1c(-c2c(Cl)c3ccccc3oc2=O)nn(-c2cccc(C)c2)c1C(=O)OCC`: 321 nm; `CCN(CC)c1ccc2c(c1)oc(=O)c1cc3cnn(-c4ccccc4)c3nc12`: 379 nm.
As to `Cc1cc(C)cc(NC(=O)c2sc(Br)nc2C)c1`, the absorption maximum reads like this: (in C1CCOC1) 293.4 nm; (in CC#N) 285 nm; (in CCCCCC) 280.5 nm; (in CCOC(C)=O) 282.5 nm; (in CN(C)C=O) 285.3 nm; (in CO) 271.5 nm. Moreover, the absorption maximum is, setting by setting: (in CS(C)=O) 283.1 nm; (in ClC(Cl)Cl) 278 nm.
Consider `CCOc1ccc2c(-c3nc(-c4cccc(Br)c4)no3)cc(=O)oc2c1`, for which the absorption maximum (in CCO) was 388 nm and the absorption maximum (in ClC(Cl)Cl) was 403 nm.
On to `CC\C=C/C=C/C=C/C=C\CCCCCCCC(=O)O`, for which the absorption maximum was 322.7 nm (in C1COCCO1); 318.9 nm (in CCCCCC); 320.8 nm (in CCCCCCCCCC); 320.6 nm (in CCCCO); 319.2 nm (in CCO); 318.8 nm (in CCOCC). In addition, the absorption maximum is on record as 318.6 nm (in CO), 324.8 nm (in ClC(Cl)Cl) and 325.3 nm (in c1ccccc1).
As for `CC1(C)c2cccc(-c3nc(-c4ccccc4)nc(-c4ccccc4)n3)c2Oc2c(-n3c4ccccc4c4ccccc43)cccc21`, the absorption maximum (in Cc1ccccc1) worked out at 341 nm.
With `c1ccc(-c2cc(-c3ccc(N(c4ccccc4)c4ccccc4)cc3)cc(-c3ccccc3)n2)cc1`, the absorption maximum reads like this: (in CC#N) 357 nm; (in CCCCCC) 354 nm; (in CCO) 362 nm; (in CO) 359 nm; (in ClCCl) 360 nm.
Take `c1ccc(-n2c3ccccc3c3cc(-c4cccc(-n5c6ccccc6c6ncccc65)c4)ccc32)cc1`: where the note is “in ClCCl”, the absorption maximum is reported as 345 nm.
As for `CCCC1=Cc2nc1ccc1[nH]c(cc1CCC)c1nc(c(O)cc3[nH]c2cc3CCC)C(CCC)=C1`, the absorption maximum (in Cc1ccccc1) amounted to 677 nm.
In turn, `c1cc2ccc1-c1ccc(cc1)-c1sc(c3c1OCCO3)-c1ccc(cc1)-c1ccc(cc1)-c1sc(c3c1OCCO3)-c1ccc(cc1)-c1ccc(cc1)-c1sc-2c2c1OCCO2` had an absorption maximum (in C1CCOC1) of 371 nm.
As to `CN(C)c1ccc(/C=C/c2nc3ccccc3o2)cc1`, the absorption maximum is, setting by setting: (in C1CCCCC1) 380 nm; (in CO) 390 nm.
With `CCCCC(CC)CN1C(=O)C2=C(c3ccc(-c4ccc(C5=C6C(C)=CC(C)=[N+]6[B-](F)(F)n6c(C)cc(C)c65)cc4)s3)N(CC(CC)CCCC)C(=O)C2=C1c1cccs1` (configuration not stated), for the setting “in Cc1ccccc1”, the absorption maximum came to 580 nm.

The values are drawn from the Deep4Chem optical property database.
